Data from article PMC7617978, “Anti-trypanosomal quinazolines targeting lysyl-tRNA synthetases show partial efficacy in a mouse model of acute Chagas disease” (Science translational medicine, 2025).
Where two headings read alike, the source gives them in different places.

How the values were obtained:
T. b. rhodesiense = assay: Drug sensitivity assay, T. b. rhodesiense bloodstream forms; type: cell-based; details: Trypanosoma brucei, read-out: EC50 value
CYP2C19 = CYP2C19 (Homo sapiens, UniProt P33261); assay: In vitro CYP inhibition, 2C19; type: in vitro ADME
Experimental: (§1) Compounds were screened for CYP inhibition activity using the protocol established by TCG Lifesciences (India). The activity of five CYP450 isoforms: 1A2; 2C9; 2D6, 3A4; and 2C19 was monitored in the presence of test or control (miconazole) compounds at 10 µM. Reactions were terminated after 10 min (30 min for CYP2C19) by the addition of acetonitrile, centrifuged and analysed via LC-MS/MS. […]

CYP1A2 = CYP1A2 (Homo sapiens, UniProt P05177); assay: In vitro CYP inhibition, 1A2; type: in vitro ADME
Experimental: as §1

[1] = Metabolic stability in mouse liver microsomes; type: in vitro ADME; details: 1 µM, NADPH
Experimental: The metabolic stability of key compounds was assessed using the protocol established by TCG
Lifesciences (India). Briefly, mouse liver microsomes (MLM) were incubated with test
compounds or controls (atenolol, propranolol, diclofenac and verapamil) at 1 µM. Reactions
were initiated by the addition of NADPH and terminated by the addition of acetonitrile. […]

[2] = system: L. donovani (LdBOB) promastigote; assay: Drug sensitivity assay, L. donovani promastigotes; type: cell-based; details: for EC50: Leishmania donovani
TcKRS1 = TcKRS1 (Trypanosoma cruzi, UniProt Q4D7V3); assay: TcKRS1 inhibition assay using BIOMOL Green; type: biochemical; details: for IC50: recombinant TcKRS1, 14 μM ATP, 400 μM L-lysine, read-out: IC50 values (95% CI)
Experimental: For TcKRS1 (TcCLB.508971.30), synthetic DNA codon-optimized for expression in E. coli and encoding amino acid residues 54–580 of the TcKRS1 protein was synthesized by Genscript and subcloned into a modified pET15b vector, with an N-terminal 6×His tag and a Tobacco Etch Virus (TEV) cleavage site. The resulting plasmid was transformed into E. coli BL21(DE3) (Stratagene) for expression. A 10-ml starter culture was grown at 37°C overnight, then used to inoculate 1 L of LB Autoinduction media that was grown for 48 h at 20°C. Cell pellets were resuspended in buffer containing 25 mM Tris, 500 mM NaCl, 20 mM imidazole, pH 8.5, and lysed using a continuous flow cell disrupter (Constant Systems). Recombinant TcKRS1 was purified using Ni^2+ affinity chromatography, the 6×His tag cleaved using TEV protease and the tag and protease removed by a second Ni^2+ affinity chromatography step. The protein was further purified via size exclusion chromatography, where TcKRS1 eluted with a mass consistent with the protein forming a dimer. Purified recombinant protein were concentrated to ~1 mg/ml in buffer (25 mM Tris, 150 mM NaCl, 10 % glycerol, pH 7.5) for assay.
The enzymatic activity of recombinant KRS was determined by monitoring the concentration of pyrophosphate released during the first step of the reaction catalyzed by recombinant TcKRS1. The pyrophosphate formed was converted to two inorganic phosphate molecules using a pyrophosphatase enzyme and concentrations of the resulting phosphate were measured using the BIOMOL Green reagent (Enzo Life Sciences). All screening assays were performed in 384-well, clear, flat-bottom plates (Greiner) at room temperature (~23°C) in 50 μl reaction volumes.
To generate IC50 data for test compounds, 10-point inhibitor dose-response curves were prepared in 384-well assay plates using an ECHO 550 acoustic dispenser (Labcyte). Following preparation of the inhibitor curves, assays were carried out for recombinant KRS enzymes as follows: TcKRS1 assay wells contained rTcKRS1 assay buffer (100 mM Tris; […]; HsKRS reactions contained HsKRS assay buffer (30 mM Tris; […].
All assays were performed by adding 25 μl of assay buffer with enzyme to compound-containing assay wells before the reaction was initiated with the addition of a 25 μl substrate mixture containing L-lysine, ATP and pyrophosphatase. […] Following a 6–h reaction at room temperature, the assays were stopped by the addition of 50 μl BIOMOL Green. The BIOMOL Green signal was allowed to develop for 30 min before the absorbance of each well was read at 650 nm using a PheraStar plate reader (BMG). All liquid-dispensing steps were carried out using a Thermo Scientific WellMate dispenser (Matrix).

HepG2 = assay: Drug sensitivity assay, HepG2 cells; type: cell-based
Experimental: Human HepG2 cells (ECACC 85011430) were cultivated at 37°C in minimal essential medium (MEM) supplemented with GlutaMax (1×, Thermo Fisher), 10% (v/v) fetal bovine serum (FBS), MEM non-essential amino acids (1×, Sigma) and in the presence of 5% CO2, as previously described ([29]). Cells were passaged twice weekly through detachment of adherent cells with trypsin/EDTA (Sigma) and subsequent dilution into fresh medium.
The relative potency of test compounds against T. cruzi epimastigotes ([29]), T. b. brucei bloodstream forms ([41]), T. b. rhodesiense bloodstream forms ([42]), L. donovani promastigotes ([43]) and Hep G2 cells ([29]) were established as previously described. The potency of test compounds on intracellular T. cruzi (Sylvio, X10/7A1) were determined in 96-well plates as previously described ([29]).

[3] = system: T. cruzi (Sylvio X10/7A1 strain) intracellular amastigote (in Vero cells); assay: microbe, parasite or virus in culture; type: cell-based; details: for EC50: Trypanosoma cruzi, Vero; for Fold-shift (relative to WT): intracellular amastigote in Vero cells
[4] = system: L. donovani (MHOM-ET-67/L82) axenic amastigote; assay: Drug sensitivity assay, L. donovani axenic amastigotes; type: cell-based; details: Leishmania donovani, WT
[5] = system: T. cruzi (Sylvio X10/7A1 strain) epimastigote; assay: microbe, parasite or virus in culture; type: cell-based; details: for EC50: Trypanosoma cruzi; for Fold-shift (relative to WT): epimastigote
[6] = KRS1 OE, promastigote, read-out: EC50 value
[7] = WT, promastigote, read-out: EC50 value
[8] = read-out: EC50 value, KRS1 S324L, promastigote
[9] = read-out: EC50 value, KRS1 OE, intracellular amastigote in Vero cells
[10] = read-out: EC50 value, KRS1 S319L, intracellular amastigote in Vero cells
[11] = read-out: EC50 value, WT, intracellular amastigote in Vero cells
[12] = read-out: EC50 value, KRS1 OE (overexpressing), epimastigote
[13] = read-out: EC50 value, KRS1 S319L, epimastigote
[14] = read-out: EC50 value, WT, epimastigote

TcKRS1, sequence (Q4D7V3 entry or part of it): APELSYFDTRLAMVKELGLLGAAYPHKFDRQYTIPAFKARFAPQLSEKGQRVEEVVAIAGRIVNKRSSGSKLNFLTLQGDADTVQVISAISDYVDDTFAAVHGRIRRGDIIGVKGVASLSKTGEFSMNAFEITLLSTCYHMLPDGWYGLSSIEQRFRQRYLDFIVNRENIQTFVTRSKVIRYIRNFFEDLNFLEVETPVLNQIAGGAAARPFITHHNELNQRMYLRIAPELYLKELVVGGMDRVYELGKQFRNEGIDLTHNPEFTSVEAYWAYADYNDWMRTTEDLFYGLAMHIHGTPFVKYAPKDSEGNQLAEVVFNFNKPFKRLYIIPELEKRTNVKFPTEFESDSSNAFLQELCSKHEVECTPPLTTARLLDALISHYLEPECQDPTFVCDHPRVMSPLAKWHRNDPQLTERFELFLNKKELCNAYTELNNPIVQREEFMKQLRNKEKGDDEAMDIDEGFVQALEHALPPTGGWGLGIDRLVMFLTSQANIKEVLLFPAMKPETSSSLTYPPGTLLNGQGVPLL
CYP2C19, sequence (P33261 whole entry, species assumed, canonical isoform): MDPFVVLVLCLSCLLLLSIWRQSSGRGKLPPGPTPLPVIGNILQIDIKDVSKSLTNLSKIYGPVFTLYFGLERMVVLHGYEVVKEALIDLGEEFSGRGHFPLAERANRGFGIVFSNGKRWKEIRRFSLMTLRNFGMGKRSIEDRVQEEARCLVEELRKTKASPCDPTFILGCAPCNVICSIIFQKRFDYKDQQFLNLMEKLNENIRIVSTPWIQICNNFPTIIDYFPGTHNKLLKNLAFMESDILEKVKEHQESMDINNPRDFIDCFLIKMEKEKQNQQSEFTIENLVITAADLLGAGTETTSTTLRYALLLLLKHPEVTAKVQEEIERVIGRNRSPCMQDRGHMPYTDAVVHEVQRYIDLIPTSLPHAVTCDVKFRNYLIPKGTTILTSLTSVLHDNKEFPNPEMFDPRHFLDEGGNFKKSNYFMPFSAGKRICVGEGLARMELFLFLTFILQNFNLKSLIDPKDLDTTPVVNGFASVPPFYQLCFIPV
CYP1A2, sequence (P05177 whole entry): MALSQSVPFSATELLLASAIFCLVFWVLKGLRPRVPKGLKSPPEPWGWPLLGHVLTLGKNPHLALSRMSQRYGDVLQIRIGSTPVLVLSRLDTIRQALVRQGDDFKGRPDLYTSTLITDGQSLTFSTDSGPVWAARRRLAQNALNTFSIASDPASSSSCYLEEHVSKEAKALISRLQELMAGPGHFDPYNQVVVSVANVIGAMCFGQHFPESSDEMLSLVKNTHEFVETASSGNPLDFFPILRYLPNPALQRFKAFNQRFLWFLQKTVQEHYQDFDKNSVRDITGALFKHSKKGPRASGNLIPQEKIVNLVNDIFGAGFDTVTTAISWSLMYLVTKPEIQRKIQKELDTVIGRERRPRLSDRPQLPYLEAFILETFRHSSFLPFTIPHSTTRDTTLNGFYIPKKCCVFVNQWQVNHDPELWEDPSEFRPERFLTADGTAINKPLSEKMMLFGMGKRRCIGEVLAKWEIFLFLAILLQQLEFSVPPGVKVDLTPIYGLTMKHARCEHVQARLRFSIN

## Cc1nc(N)c2c(F)c(F)c(NC3CCCC3)c(F)c2n1 [DMU371, N7-Cyclopentyl-5,6,8-trifluoro-2-methylquinazoline-4,7-diamine]
T. b. rhodesiense
  EC50: 1090 ± 420 nM
CYP2C19
  inhibition at 30 min, 10 µM: 6.1 ± 1.3%
CYP1A2
  inhibition at 10 min, 10 µM: 74.8 ± 0.5%
[1]
  Mouse liver microsome stability: > 500 µL/min/mg
[2]; [6]
  EC50: 1860 ± 63 nM
[2]; [7]
  EC50: 524 ± 9 nM
[2]; [8]
  EC50: 1740 ± 49 nM
TcKRS1
  extent of inhibition of TcKRS1: full inhibition
  IC50: 185 nM
HepG2; Homo sapiens, HepG2, read-out: EC50 value
  EC50: 5820 ± 500 nM
[3]; [9]
  EC50: 888 ± 117 nM
[3]; [10]
  EC50: 589 ± 57 nM
[3]; [11]
  EC50: 205 ± 24 nM
[4]
  EC50: 5320 ± 2780 nM
[5]; [12]
  EC50: 624 ± 14 nM
[5]; [13]
  EC50: 326 ± 26 nM
[5]; [14]
  EC50: 63 ± 2.4 nM

## Cc1nc(N)c2c(F)c(F)c(SC3CCCCC3)c(F)c2n1 [DMU759, 7-(Cyclohexylthio)-5,6,8-trifluoro-2-methylquinazolin-4-amine]
T. b. rhodesiense; WT, BSF
  EC50: 313 ± 183 nM
CYP2C19
  inhibition at 30 min, 10 µM: 12.8 ± 2.8%
CYP1A2
  inhibition at 10 min, 10 µM: 61.5 ± 0.9%
[1]
  Mouse liver microsome stability: > 500 µL/min/mg
[2]; KRS1 OE, promastigote
  Fold-shift (relative to WT): 13 fold
[2]; KRS1 S324L, promastigote
  Fold-shift (relative to WT): 12 fold
[2]; [6]
  EC50: 1470 ± 56 nM
[2]; [7]
  EC50: 115 ± 0.1 nM
[2]; [8]
  EC50: 1320 ± 32 nM
TcKRS1
  extent of inhibition of TcKRS1: full inhibition
  IC50: 15 nM
HepG2; Homo sapiens, HepG2; read-out: EC50 value
  EC50: 16900 ± 5380 nM
[3]; KRS1 OE
  Fold-shift (relative to WT): 8 fold
[3]; KRS1 S319L
  Fold-shift (relative to WT): 97 fold
[3]; [9]
  EC50: 121 ± 19 nM
[3]; [10]
  EC50: 1540 ± 130 nM
[3]; [11]
  EC50: 16 ± 1 nM
[4]
  EC50: 284 ± 20 nM
[5]; KRS1 OE
  Fold-shift (relative to WT): 10 fold
[5]; KRS1 S319L
  Fold-shift (relative to WT): 41 fold
[5]; [12]
  EC50: 134 ± 3 nM
[5]; [13]
  EC50: 565 ± 41 nM
[5]; [14]
  EC50: 14 ± 0.3 nM
[5]; in vitro, parasite not stated (discussion)
  resistance conferred by mutation of a single amino acid in the KRS1 active site: > 20 fold
